According to PMC4979471 (Cell Death Discovery, 2015):
Read-outs that look alike come from different tables or passages of the source.

Columns and labels:
Test in all cases: Kinase selectivity, P33-radiolabeled assay
Format in all cases: biochemical
Details in all cases: 10 μM ATP
CDK6/cyclin D1 = target: T1, CDK6/cyclin D1 (Homo sapiens, UniProt Q00534)
T1 construct: purchased Reaction Biology Corp
How it was run: (§1)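 Values show % enzyme activity normalised to DMSO vehicle. They come from one 10 μM compound concentration run twice, at an ATP level of 10 μM.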

CAMK2g = target: T2, CAMK2g (Homo sapiens, UniProt Q13555)
T2 construct: purchased Reaction Biology Corp
T2 sequence (Q13555 whole entry): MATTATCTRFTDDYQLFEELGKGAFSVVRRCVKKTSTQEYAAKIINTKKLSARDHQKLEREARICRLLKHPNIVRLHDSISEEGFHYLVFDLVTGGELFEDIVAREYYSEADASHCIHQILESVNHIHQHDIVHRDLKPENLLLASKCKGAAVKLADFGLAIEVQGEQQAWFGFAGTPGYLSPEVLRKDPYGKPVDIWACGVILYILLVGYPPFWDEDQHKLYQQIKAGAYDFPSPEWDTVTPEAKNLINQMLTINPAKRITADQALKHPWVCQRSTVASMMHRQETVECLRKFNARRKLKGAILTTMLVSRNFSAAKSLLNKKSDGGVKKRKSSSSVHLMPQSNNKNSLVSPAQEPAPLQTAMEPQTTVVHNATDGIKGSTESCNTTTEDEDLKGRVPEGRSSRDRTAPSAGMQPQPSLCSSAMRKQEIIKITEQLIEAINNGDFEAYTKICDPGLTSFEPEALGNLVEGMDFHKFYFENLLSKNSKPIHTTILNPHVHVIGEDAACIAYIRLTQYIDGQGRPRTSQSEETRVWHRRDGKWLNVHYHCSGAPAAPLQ
How it was run: as §1

CK2a2 = target: T3, CK2a2 (Homo sapiens, UniProt P19784)
T3 construct: purchased Reaction Biology Corp
T3 sequence (P19784 whole entry): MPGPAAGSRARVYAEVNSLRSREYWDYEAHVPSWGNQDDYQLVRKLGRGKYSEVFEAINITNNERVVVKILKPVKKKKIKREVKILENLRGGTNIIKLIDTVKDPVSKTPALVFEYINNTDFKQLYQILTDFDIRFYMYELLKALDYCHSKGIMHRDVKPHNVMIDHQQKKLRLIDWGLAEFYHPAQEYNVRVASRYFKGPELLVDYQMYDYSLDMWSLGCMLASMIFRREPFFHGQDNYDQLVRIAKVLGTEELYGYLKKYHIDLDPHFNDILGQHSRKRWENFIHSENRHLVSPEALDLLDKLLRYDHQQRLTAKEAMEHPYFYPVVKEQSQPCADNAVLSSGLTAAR
How it was run: as §1

DYRK2 = target: T4, DYRK2 (Homo sapiens, UniProt Q92630)
T4 construct: purchased Reaction Biology Corp
T4 sequence (Q92630 1-601): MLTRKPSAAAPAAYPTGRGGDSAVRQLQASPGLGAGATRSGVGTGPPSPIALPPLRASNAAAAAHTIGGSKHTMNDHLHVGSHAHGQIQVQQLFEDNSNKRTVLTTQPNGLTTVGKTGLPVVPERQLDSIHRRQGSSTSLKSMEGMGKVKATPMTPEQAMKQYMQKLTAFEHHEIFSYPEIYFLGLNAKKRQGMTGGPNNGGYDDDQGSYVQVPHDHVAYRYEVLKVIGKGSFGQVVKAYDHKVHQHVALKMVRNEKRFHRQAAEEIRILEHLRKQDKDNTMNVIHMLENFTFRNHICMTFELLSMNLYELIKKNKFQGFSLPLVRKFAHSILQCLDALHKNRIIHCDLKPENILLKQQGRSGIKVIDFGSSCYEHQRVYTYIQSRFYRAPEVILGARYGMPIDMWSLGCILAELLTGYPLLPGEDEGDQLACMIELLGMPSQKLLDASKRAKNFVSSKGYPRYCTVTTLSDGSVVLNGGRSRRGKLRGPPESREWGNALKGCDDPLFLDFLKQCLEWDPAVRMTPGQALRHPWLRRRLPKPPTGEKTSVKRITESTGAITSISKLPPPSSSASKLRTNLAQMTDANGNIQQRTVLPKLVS
How it was run: as §1

HIPK4 = target: T5, HIPK4 (Homo sapiens, UniProt Q8NE63)
T5 construct: purchased Reaction Biology Corp
T5 sequence (Q8NE63 1-616): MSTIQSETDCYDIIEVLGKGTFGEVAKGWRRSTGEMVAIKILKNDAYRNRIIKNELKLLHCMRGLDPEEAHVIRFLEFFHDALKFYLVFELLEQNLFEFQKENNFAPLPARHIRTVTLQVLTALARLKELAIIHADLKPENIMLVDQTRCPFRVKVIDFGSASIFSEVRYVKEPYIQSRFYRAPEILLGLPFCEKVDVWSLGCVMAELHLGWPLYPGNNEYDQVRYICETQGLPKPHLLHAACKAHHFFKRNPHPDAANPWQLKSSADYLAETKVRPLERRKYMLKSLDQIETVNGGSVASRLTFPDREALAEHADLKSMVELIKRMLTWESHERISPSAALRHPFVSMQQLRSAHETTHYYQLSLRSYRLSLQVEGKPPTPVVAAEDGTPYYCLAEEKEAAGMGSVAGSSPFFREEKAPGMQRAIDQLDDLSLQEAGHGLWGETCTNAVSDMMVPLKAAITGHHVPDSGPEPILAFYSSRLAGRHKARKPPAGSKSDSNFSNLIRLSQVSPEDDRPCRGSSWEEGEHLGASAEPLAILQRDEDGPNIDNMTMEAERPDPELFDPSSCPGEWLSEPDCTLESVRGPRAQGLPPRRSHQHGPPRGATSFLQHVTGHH
How it was run: as §1

FMS = target: T6, FMS (Homo sapiens, UniProt P07333)
T6 construct: purchased Reaction Biology Corp
T6 sequence (P07333 20-972): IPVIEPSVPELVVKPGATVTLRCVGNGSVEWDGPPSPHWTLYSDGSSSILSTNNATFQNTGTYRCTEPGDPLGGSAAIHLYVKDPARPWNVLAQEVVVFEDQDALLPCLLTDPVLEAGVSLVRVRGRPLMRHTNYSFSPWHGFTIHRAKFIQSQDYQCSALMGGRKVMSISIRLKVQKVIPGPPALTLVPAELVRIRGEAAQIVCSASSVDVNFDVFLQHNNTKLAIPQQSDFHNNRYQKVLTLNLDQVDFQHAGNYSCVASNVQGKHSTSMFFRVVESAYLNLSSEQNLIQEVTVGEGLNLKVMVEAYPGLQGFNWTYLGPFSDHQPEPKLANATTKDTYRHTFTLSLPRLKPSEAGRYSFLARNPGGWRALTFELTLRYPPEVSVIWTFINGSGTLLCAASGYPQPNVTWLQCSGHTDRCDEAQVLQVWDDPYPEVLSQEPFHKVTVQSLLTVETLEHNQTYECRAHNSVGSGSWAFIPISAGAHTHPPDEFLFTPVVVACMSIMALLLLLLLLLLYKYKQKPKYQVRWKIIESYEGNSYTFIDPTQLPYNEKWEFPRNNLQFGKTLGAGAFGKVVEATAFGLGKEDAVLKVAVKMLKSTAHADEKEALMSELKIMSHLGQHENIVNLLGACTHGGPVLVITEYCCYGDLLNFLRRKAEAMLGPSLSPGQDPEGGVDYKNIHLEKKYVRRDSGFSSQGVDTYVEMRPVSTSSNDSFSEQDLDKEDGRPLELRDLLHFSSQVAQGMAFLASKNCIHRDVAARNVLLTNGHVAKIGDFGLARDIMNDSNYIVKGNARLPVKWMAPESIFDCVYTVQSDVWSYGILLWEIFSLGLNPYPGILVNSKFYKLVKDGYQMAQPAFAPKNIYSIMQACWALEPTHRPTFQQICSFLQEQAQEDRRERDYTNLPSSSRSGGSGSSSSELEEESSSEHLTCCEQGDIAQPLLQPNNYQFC
How it was run: as §1

TSSK3/STK22C = target: T7, TSSK3/STK22C (Homo sapiens, UniProt Q96PN8)
T7 construct: purchased Reaction Biology Corp
T7 sequence (Q96PN8 1-268): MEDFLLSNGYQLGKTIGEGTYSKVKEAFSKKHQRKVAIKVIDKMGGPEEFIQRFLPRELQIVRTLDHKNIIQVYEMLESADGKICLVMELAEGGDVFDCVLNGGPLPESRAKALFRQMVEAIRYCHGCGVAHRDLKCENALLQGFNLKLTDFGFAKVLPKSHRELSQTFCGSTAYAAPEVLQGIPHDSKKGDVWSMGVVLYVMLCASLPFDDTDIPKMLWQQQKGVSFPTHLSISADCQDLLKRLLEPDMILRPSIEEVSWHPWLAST
How it was run: as §1

RAF1 = target: T8, RAF1 (Homo sapiens, UniProt P04049)
T8 construct: purchased Reaction Biology Corp
T8 sequence (P04049 whole entry): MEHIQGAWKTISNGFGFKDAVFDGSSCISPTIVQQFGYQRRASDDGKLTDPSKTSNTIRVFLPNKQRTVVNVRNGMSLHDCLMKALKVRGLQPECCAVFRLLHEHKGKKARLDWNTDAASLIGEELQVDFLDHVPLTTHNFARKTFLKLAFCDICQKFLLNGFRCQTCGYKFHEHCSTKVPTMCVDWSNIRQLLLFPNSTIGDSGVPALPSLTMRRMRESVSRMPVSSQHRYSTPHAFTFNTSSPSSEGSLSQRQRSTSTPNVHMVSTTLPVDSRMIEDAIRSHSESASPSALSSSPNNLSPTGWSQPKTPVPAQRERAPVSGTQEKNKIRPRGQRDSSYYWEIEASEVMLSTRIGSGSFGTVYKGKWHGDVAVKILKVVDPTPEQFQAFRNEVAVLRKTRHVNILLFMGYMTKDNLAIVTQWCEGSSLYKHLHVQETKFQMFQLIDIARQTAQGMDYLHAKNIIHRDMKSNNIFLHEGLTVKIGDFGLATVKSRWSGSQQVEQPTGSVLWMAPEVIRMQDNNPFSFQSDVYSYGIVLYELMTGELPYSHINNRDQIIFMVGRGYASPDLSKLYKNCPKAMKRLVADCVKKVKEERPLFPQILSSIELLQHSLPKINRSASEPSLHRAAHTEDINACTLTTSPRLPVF
How it was run: as §1

[1] = read-out: % Enzyme Activity (relative to DMSO controls) AVG
[2] = read-out: % Enzyme Activity (relative to DMSO controls) Data 1
[3] = read-out: % Enzyme Activity (relative to DMSO controls) Data 2

T1 sequence (Q00534 whole entry): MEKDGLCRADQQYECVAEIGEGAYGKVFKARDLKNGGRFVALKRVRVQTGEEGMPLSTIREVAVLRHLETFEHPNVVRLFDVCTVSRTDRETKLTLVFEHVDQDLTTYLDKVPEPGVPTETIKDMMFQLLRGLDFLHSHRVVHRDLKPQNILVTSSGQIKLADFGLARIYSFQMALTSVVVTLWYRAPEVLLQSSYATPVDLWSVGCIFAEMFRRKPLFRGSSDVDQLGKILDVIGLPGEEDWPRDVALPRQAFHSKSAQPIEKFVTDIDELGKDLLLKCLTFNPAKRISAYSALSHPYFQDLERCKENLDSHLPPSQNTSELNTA
T1 sequence (P24385 whole entry partner): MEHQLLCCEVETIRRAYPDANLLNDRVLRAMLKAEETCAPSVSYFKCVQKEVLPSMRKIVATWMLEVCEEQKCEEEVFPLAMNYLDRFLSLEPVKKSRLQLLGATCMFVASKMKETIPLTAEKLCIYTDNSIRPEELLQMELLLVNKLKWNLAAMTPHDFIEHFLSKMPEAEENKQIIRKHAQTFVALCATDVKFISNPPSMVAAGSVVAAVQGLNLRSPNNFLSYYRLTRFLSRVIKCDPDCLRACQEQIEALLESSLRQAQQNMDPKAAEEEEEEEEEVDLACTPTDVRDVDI

## CC(C)(C)C(=O)N1N=CC[C@H]1c1ccccc1 [GSK′963]
CDK6/cyclin D1; [1]
  remaining activity at 10 µM: 93.7%
CDK6/cyclin D1; [2]
  remaining activity at 10 µM: 94.2%
CDK6/cyclin D1; [3]
  remaining activity at 10 µM: 93.2%
CAMK2g; [1]
  remaining activity at 10 µM: 115%
CAMK2g; [2]
  remaining activity at 10 µM: 112%
CAMK2g; [3]
  remaining activity at 10 µM: 118%
CK2a2; [1]
  remaining activity at 10 µM: 107%
CK2a2; [2]
  remaining activity at 10 µM: 108%
CK2a2; [3]
  remaining activity at 10 µM: 107%
DYRK2; [1]
  remaining activity at 10 µM: 97.7%
DYRK2; [2]
  remaining activity at 10 µM: 96.9%
DYRK2; [3]
  remaining activity at 10 µM: 98.4%
HIPK4; [1]
  remaining activity at 10 µM: 99.5%
HIPK4; [2]
  remaining activity at 10 µM: 96.7%
HIPK4; [3]
  remaining activity at 10 µM: 102%
FMS; [1]
  remaining activity at 10 µM: 95%
FMS; [2]
  remaining activity at 10 µM: 97.2%
FMS; [3]
  remaining activity at 10 µM: 92.8%
TSSK3/STK22C; [1]
  remaining activity at 10 µM: 131%
TSSK3/STK22C; [2]
  remaining activity at 10 µM: 129%
TSSK3/STK22C; [3]
  remaining activity at 10 µM: 133%
RAF1; [1]
  remaining activity at 10 µM: 93.7%
RAF1; [2]
  remaining activity at 10 µM: 94.8%
RAF1; [3]
  remaining activity at 10 µM: 92.7%
